The record followed here is patent US20080160059A1, “ANTIBIOTIC/ANTIMYCOTIC PREPARATION AND USE IN PLANTS” (priority 2006, published 2008).

The structures appear in SMILES notation. Counter-ions that a name gives are not always drawn.

For this assay, the system named is Burkholderia andropogonis. As to the kind of experiment: Absorbent disc test on a bacterial lawn on agar (kill zone). To be noted: intermediate concentration tested; absorbent discs on bacterial lawn. Format: cell-based. The source says: To determine the sensitivity of Burkholderia andropogonis, a stock was applied to commercially prepared agar-containing Petri dishes to provide dishes containing a lawn of bacteria. Then, absorbent discs containing a mixture of oxytetracycline hydrochloride and copper oxychloride, and each of the active ingredients separately, oxytetracycline hydrochloride alone and copper oxychloride alone were placed onto the bacterial lawn. The concentrations of the individual active agents in the discs were the same as that for each found in the combination. The combination and the individual actives were tested at three different concentrations. Each concentration was run in triplicate.
An analogous commercially available system for making routine determinations of bacterial and fungal sensitivity also was used.
The toxicity at each concentration was far greater than the sum of the toxicities of each active agent alone, for example, at the intermediate concentration tested, the bacteria kill zone for oxytetracycline was 3.3 mm in diameter; for copper oxychloride, the zone was 2 mm in diameter; but for the combination, the kill zone was 15 mm in diameter.

On to `[Cl-].[Cu+2].[Cu+2].[OH-].[OH-].[OH-]` [copper oxychloride], for which the “bacteria kill zone in diameter” value is reported as 2 mm.
For the molecule `CN(C)[C@@H]1C(O)=C(C(N)=O)C(=O)[C@@]2(O)C(O)=C3C(=O)c4c(O)cccc4[C@@](C)(O)[C@H]3[C@H](O)[C@@H]12` [oxytetracycline hydrochloride], the “bacteria kill zone in diameter” value is on record as 3.3 mm.
